Source: US9527851B2, “Pyrrole six-membered heteroaryl ring derivative, preparation method thereof, and medicinal uses thereof” (Jiangsu Hengrui Medicine Co., Ltd., priority 2011, dated 2016)

What was measured:
JAK3 kinase = JAK3 kinase (Homo sapiens (Human), UniProt P52333); test: Assay for inhibiting JAK3 kinase (in vitro kinase assay, HRP anti-phosphotyrosine antibody/TMB absorbance); assay type: biochemical; settings: 50 minutes at room temperature; read-out: IC50 (JAK3/Bio)
Protocol: In vitro activity of compounds of the present invention for inhibiting JAK3 kinase was determined by the following method.

JAK1 kinase = JAK1 kinase (Homo sapiens (Human), UniProt P23458); test: Assay for inhibiting JAK1 kinase (in vitro kinase assay, HRP anti-phosphotyrosine antibody/TMB absorbance); assay type: biochemical; settings: 20 μM ATP, 50 minutes at room temperature; read-out: IC50 (JAK1/Bio)
Sequence of JAK1 kinase (P23458 whole entry): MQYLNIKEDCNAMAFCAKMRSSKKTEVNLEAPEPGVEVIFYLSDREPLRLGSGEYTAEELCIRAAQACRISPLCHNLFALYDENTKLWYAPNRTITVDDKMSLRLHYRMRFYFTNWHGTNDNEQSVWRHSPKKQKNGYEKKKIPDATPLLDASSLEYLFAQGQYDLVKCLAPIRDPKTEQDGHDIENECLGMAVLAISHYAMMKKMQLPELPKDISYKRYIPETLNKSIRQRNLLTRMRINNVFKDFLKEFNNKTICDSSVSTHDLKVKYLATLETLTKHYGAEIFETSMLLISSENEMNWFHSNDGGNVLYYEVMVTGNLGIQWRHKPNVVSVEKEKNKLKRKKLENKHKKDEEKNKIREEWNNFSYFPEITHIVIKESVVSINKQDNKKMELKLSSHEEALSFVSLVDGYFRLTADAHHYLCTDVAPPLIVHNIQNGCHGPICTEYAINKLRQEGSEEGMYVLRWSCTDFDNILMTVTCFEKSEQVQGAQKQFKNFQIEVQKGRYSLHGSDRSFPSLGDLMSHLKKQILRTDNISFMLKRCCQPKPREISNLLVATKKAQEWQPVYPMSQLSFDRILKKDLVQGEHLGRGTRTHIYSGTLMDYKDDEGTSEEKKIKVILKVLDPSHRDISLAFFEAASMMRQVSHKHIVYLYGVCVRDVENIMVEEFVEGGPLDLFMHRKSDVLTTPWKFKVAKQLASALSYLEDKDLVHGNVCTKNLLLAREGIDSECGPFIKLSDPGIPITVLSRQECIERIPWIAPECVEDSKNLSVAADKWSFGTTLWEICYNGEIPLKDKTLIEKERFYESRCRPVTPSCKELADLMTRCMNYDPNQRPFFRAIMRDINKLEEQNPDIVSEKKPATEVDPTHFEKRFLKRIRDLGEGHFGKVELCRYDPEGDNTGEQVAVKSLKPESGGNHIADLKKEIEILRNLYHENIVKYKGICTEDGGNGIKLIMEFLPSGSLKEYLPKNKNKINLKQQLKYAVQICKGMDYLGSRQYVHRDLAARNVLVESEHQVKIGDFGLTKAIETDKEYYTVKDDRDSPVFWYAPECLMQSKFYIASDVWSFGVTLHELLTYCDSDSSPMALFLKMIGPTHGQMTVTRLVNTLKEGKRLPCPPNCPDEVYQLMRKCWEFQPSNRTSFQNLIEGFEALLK
Protocol: In vitro activity of compounds of the present invention for inhibiting JAK1 kinase was determined by the following method.
IC50 values of test compounds was calculated from the data of the test compounds in inhibiting the activity of JAK1 kinase at different concentrations.

JAK2 kinase = JAK2 kinase (Homo sapiens (Human), UniProt O60674); test: Assay for inhibiting JAK2 kinase (in vitro kinase assay, HRP anti-phosphotyrosine antibody/TMB absorbance); assay type: biochemical; settings: 20 μM ATP, 50 minutes at room temperature; read-out: IC50 (JAK2/Bio)
Sequence of JAK2 kinase (O60674 whole entry): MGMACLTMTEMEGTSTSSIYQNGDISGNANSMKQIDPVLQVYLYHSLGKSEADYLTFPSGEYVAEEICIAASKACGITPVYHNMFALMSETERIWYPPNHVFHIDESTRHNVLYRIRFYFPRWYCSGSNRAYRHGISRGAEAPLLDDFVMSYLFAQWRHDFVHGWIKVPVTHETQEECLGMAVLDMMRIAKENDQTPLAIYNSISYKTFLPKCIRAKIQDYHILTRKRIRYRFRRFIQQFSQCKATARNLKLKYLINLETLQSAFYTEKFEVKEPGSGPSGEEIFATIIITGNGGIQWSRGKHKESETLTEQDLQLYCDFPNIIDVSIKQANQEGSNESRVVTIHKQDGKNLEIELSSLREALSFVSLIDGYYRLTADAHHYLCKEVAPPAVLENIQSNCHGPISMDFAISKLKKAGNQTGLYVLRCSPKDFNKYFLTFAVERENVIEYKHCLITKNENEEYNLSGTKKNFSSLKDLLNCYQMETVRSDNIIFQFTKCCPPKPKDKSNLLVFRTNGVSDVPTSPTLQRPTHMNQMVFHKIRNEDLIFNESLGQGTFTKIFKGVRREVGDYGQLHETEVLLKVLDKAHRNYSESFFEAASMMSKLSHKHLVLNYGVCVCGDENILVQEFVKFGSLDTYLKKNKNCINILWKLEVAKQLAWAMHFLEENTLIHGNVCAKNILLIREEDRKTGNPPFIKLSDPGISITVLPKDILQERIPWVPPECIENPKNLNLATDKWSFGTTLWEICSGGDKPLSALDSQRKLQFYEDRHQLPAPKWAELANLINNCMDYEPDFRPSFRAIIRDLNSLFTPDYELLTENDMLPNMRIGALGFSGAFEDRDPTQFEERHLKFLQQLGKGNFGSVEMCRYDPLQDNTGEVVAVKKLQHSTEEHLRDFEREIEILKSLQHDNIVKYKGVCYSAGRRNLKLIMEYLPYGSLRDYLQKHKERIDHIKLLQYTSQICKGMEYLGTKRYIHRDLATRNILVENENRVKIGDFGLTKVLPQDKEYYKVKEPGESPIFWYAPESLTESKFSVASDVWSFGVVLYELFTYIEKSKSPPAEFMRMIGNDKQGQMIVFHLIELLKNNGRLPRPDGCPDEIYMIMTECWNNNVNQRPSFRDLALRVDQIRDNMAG
Protocol: In vitro activity of compounds of the present invention for inhibiting JAK2 kinase was determined by the following method.

[1] = Pharmacokinetics assay in rats, intragastric administration, plasma by LC/MS/MS; assay type: in vivo, Sprague-Dawley (SD) rats; settings: both sexes, Sprague-Dawley, rat, plasma, po, SD rats, 10 mg/kg; for Vd/F: read-out: Apparent Distribution Volume Vz/F; for AUC: read-out: Area Under Curve AUC; for CL/F: read-out: Clearance CL/F; for half-life: read-out: Half-Life t½ (converted); for Cmax: read-out: Plasma Conc. Cmax; for MRT: read-out: Mean Residence Time MRT
Protocol: Rats were used as test animals. […] The pharmacokinetic behavior of the compounds of the present invention was studied and evaluated in rats.
56 Healthy adult Sprague-Dawley (SD) rats, half male and half female, purchased from SINO-BRITSH SIPPR/BK LAB.
The appropriate amount of test compounds were weighed and mixed with 1.0 mL of dimethyl sulfoxide to prepare a 1.0 mg/mL suspension.
After an overnight fast, SD rats were administered intragastrically at a dose of 10.0 mg/kg and an administration volume of 10 mL/kg.
The plasma samples were stored at −20° C. The rats were fed 2 hours after administration.
Content determination of the test compounds in rat plasma after intragastrically administering at different concentrations: 50 μL of rat plasmas taken at various time points after administration were mixed with 50 μL of internal standard solution and 100 μL of methanol and mixed for 3 minutes by a vortexer. The mixture was centrifuged for 10 minutes at 13,500 rpm. 10 μL of the supernatant was taken from the plasma sample and analyzed by LC-MS/MS.
Pharmacokinetic Parameters of the compounds of the present invention were shown as follows: […]

Sequence of JAK3 kinase (P52333 whole entry): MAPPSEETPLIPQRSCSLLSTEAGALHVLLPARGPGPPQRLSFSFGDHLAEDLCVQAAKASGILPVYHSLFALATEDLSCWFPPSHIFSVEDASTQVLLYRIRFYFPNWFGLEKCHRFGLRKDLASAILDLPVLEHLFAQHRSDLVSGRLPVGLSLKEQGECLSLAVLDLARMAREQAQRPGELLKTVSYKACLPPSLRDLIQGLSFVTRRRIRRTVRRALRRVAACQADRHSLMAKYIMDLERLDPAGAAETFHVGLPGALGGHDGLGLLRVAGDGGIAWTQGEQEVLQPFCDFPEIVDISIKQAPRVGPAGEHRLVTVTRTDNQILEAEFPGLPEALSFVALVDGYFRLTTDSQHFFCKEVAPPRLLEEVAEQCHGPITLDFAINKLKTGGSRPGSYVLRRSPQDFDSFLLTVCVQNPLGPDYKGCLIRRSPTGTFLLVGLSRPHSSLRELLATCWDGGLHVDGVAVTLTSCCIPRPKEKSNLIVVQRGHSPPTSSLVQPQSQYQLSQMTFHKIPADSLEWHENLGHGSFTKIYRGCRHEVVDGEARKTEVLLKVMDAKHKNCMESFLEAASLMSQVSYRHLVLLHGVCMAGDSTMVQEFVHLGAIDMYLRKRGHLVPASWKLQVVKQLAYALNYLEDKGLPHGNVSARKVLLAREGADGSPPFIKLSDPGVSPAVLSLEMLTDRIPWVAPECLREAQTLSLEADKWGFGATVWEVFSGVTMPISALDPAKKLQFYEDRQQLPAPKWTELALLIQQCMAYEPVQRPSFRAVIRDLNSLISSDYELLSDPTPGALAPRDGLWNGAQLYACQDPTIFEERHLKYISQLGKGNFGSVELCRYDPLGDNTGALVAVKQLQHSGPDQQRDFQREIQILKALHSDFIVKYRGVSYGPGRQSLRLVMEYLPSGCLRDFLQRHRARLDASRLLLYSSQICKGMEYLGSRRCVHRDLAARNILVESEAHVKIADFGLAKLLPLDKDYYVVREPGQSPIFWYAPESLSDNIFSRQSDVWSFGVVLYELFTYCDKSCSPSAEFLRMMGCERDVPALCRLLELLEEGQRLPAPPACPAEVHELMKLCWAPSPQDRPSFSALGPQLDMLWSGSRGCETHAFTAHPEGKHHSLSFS

| SMILES | IC50 (JAK3 kinase) [nM] | IC50 (JAK1 kinase) [nM] | IC50 (JAK2 kinase) [nM] | Vd/F [1] [L/kg] | AUC [1] [ng·h/mL] | CL/F [1] [mL/min/kg] | half-life [1] [h] | Cmax [1] [ng/mL] | MRT [1] [h] |
| --- | --- | --- | --- | --- | --- | --- | --- | --- | --- |
| CN(c1ncnc2[nH]ccc12)[C@H]1C[C@@H]2CN(CC(F)(F)F)C[C@@H]2C1 [Example 56, N-methyl-N-((3aR,5S,6aS)-2-(2,2,2-trifluoroethyl)octahydrocyclopenta[c]pyrrol-5-yl)-7H-pyrrolo[2,3-d]pyrimidin-4-amine] | 75 | 11 | 32 |  |  |  |  |  |  |
| CN(c1ncnc2[nH]cc(F)c12)[C@H]1C[C@@H]2CN(C(=O)CO)C[C@@H]2C1 [Example 128, 1-((3aR,5S,6aS)-5-((5-fluoro-7H-pyrrolo[2,3-d]pyrimidin-4-yl)(methyl)amino)hexahydrocyclopenta[c]pyrrol-2(1H)-yl)-2-hydroxyethanone] | 4 | 13 |  | 11.4 ± 4.15 | 2320 ± 1030 | 84.3 ± 37.8 | 1.62 ± 0.28 | 1420 ± 150 |  |
| CN(c1ncnc2[nH]ccc12)[C@H]1C[C@@H]2CN(C(=O)Nc3nc(CO)ns3)C[C@@H]2C1 [Example 50, (3aR,5S,6aS)—N-(3-(Hydroxymethyl)-1,2,4-thiadiazol-5-yl)-5-(methyl(7H-pyrrolo[2,3-d]pyrimidin-4-yl)amino)hexahydrocyclopenta[c]pyrrole-2(1H)-carboxamide] | 201 | 0.5 | 7 |  |  |  |  |  |  |
| CN(C[C@H]1[C@@H]2CN(C(=O)OC(C)(C)C)C[C@@H]21)c1ncnc2[nH]ccc12 [Example 133, (1R,5S,6S)-tert-butyl 6-((methyl(7H-pyrrolo[2,3-d]pyrimidin-4-yl)amino)methyl)-3-azabicyclo[3.1.0]hexane-3-carboxylate] | 90 |  |  |  |  |  |  |  |  |
| CN(c1ncnc2[nH]ccc12)[C@H]1C[C@@H]2CN(C(=O)[C@H](O)CO)C[C@@H]2C1 [Example 92, (R)-2,3-dihydroxy-1-((3aR,5S,6aS)-5-(methyl(7H-pyrrolo[2,3-d]pyrimidin-4-yl)amino)hexahydrocyclopenta[c]pyrrol-2(1H)-yl)propan-1-one] |  | 131 | 203 |  |  |  |  |  |  |
| CCc1nsc(NC(=O)N2C[C@H]3C[C@H](N(C)c4ncnc5[nH]ccc45)C[C@H]3C2)n1 [Example 48, (3aR,5S,6aS)—N-(3-Ethyl-1,2,4-thiadiazol-5-yl)-5-(methyl(7H-pyrrolo[2,3-d]pyrimidin-4-yl)amino)hexahydrocyclopenta[c]pyrrole-2(1H)-carboxamide] |  | 1 | 31 | 7.2 ± 8.11 | 9620 ± 7910 | 31.9 ± 26.9 | 2.43 ± 0.75 | 2070 ± 1470 | 3.4 ± 0.91 |
| COc1nsc(NC(=O)N2C[C@H]3C[C@@H](N(C)c4ncnc5[nH]ccc45)C[C@H]3C2)n1 [Example 74, (3aR,5R,6aS)-N-(3-methoxy-1,2,4-thiadiazol-5-yl)-5-(methyl(7H-pyrrolo[2,3-d]pyrimidin-4-yl)amino)hexahydrocyclopenta[c]pyrrole-2(1H)-carboxamide] |  | 4 | 56 |  |  |  |  |  |  |
| CN(c1ncnc2[nH]ccc12)[C@H]1C[C@@H]2CN(C(=O)Nc3nncs3)C[C@@H]2C1 [Example 86, (3aR,5S,6aS)-5-(methyl(7H-pyrrolo[2,3-d]pyrimidin-4-yl)amino)-N-(1,3,4-thiadiazol-2-yl)hexahydrocyclopenta[c]pyrrole-2(1H)-carboxamide] |  | 10 | 52 |  |  |  |  |  |  |
| CN(c1ncnc2[nH]ccc12)[C@H]1C[C@@H]2CN(C(=O)C(O)C(F)(F)F)C[C@@H]2C1 (stereo partly drawn) [Example 97, 3,3,3-trifluoro-2-hydroxy-1-((3aR,5S,6aS)-5-(methyl(7H-pyrrolo[2,3-d]pyrimidin-4-yl)amino)hexahydrocyclopenta[c]pyrrol-2(1H)-yl)propan-1-one] | 110 |  |  |  |  |  |  |  |  |
| CN(c1ncnc2[nH]c(F)cc12)[C@H]1C[C@@H]2CN(C(=O)CO)C[C@@H]2C1 [Example 129, 1-((3aR,5S,6aS)-5-((6-fluoro-7H-pyrrolo[2,3-d]pyrimidin-4-yl)(methyl)amino)hexahydrocyclopenta[c]pyrrol-2(1H)-yl)-2-hydroxyethanone] | 17 | 36 |  |  |  |  |  |  |  |
| CN(c1ncnc2[nH]ccc12)[C@H]1C[C@@H]2CN(C(=O)OCC(F)(F)F)C[C@@H]2C1 [Example 111, (3aR,5S,6aS)-2,2,2-trifluoroethyl 5-(methyl(7H-pyrrolo[2,3-d]pyrimidin-4-yl)amino)hexahydrocyclopenta[c]pyrrole-2(1H)-carboxylate] | 101 | 96 | 146 |  |  |  |  |  |  |
| CN(c1ncnc2[nH]ccc12)[C@H]1C[C@@H]2CN(C(=O)Nc3nc(C4CC4)ns3)C[C@@H]2C1 [Example 49, (3aR,5S,6aS)—N-(3-Cyclopropyl-1,2,4-thiadiazol-5-yl)-5-(methyl(7H-pyrrolo[2,3-d]pyrimidin-4-yl)amino)hexahydrocyclopenta[c]pyrrole-2(1H)-carboxamide] |  | 0.2 | 14 | 18.1 ± 20.7 | 6000 ± 4740 | 46.1 ± 35.6 |  | 1060 ± 677 |  |
| CN(c1ncnc2[nH]ccc12)[C@H]1C[C@@H]2CN(C(=O)CCC#N)C[C@@H]2C1 [Example 22, 4-((3aR,5S,6aS)-5-(Methyl(7H-pyrrolo[2,3-d]pyrimidin-4-yl)amino)hexahydrocyclopenta[c]pyrrol-2(1H)-yl)-4-oxobutanenitrile] |  | 16 | 54 | 9.39 ± 8.06 | 6990 ± 4560 | 34.6 ± 22.7 | 2.87 ± 0.7 | 2960 ± 2110 | 2.6 ± 0.1 |
| COc1nsc(NC(=O)N2C[C@H]3C[C@H](N(C)c4ncnc5[nH]ccc45)C[C@H]3C2)n1 [Example 34, (3aR,5S,6aS)—N-(3-Methoxy-1,2,4-thiadiazol-5-yl)-5-(methyl(7H-pyrrolo[2,3-d]pyrimidin-4-yl)amino)hexahydrocyclopenta[c]pyrrole-2(1H)-carboxamide] |  | 2 | 5 | 2.76 ± 1.53 | 14900 ± 10400 | 18.3 ± 14.2 | 2.1 ± 0.73 | 2670 ± 1450 | 3.81 ± 0.82 |
| CN(c1ncnc2[nH]ccc12)[C@@H]1C[C@@H]2CN(CC#N)C[C@@H]2C1 [Example 69, 2-((3aR,5R,6aS)-5-(methyl(7H-pyrrolo[2,3-d]pyrimidin-4-yl)amino)hexahydrocyclopenta[c]pyrrol-2(1H)-yl)acetonitrile] | 20 | 5 | 4 |  |  |  |  |  |  |
| CC(=O)N1CC[C@H]2CC(N(C)c3ncnc4[nH]ccc34)C[C@H]2C1 (stereo partly drawn) [Example 35, 1-((4aS,7aR)-6-(Methyl(7H-pyrrolo[2,3-d]pyrimidin-4-yl)amino)hexahydro-1H-cyclopenta[c]pyridin-2(3H,4H,4aH,5H,6H,7H,7aH)-yl)ethanone] |  | 3 | 16 | 10.4 ± 2.04 | 3080 ± 1340 | 63.3 ± 28 | 2.11 ± 0.67 | 1220 ± 244 | 3.02 ± 1.33 |
| Cc1noc(N2C[C@H]3C[C@H](N(C)c4ncnc5[nH]ccc45)C[C@H]3C2)n1 [Example 61, N-methyl-N-((3aR,5S,6aS)-2-(3-methyl-1,2,4-oxadiazol-5-yl)octahydrocyclopenta[c]pyrrol-5-yl)-7H-pyrrolo[2,3-d]pyrimidin-4-amine] |  | 128 | 25 |  |  |  |  |  |  |
| COC(=O)CN1C[C@H]2C[C@H](N(C)c3ncnc4[nH]ccc34)C[C@H]2C1 [Example 24, methyl 2-((3aR,5S,6aS)-5-(methyl(7H-pyrrolo[2,3-d]pyrimidin-4-yl)amino)hexahydrocyclopenta[c]pyrrol-2(1H)-yl)acetate] |  | 13 | 77 |  |  |  |  |  |  |
| CN(c1ncnc2[nH]ccc12)[C@@H]1C[C@@H]2CN(C(=O)Nc3nncs3)C[C@@H]2C1 [Example 73, (3aR,5R,6aS)-5-(methyl(7H-pyrrolo[2,3-d]pyrimidin-4-yl)amino)-N-(1,3,4-thiadiazol-2-yl)hexahydrocyclopenta[c]pyrrole-2(1H)-carboxamide] |  | 75 | 47 |  |  |  |  |  |  |
| CN(c1ncnc2[nH]ccc12)[C@@H]1C[C@@H]2CN(C(=O)CCC#N)C[C@@H]2C1 [Example 75, 4-((3aR,5R,6aS)-5-(methyl(7H-pyrrolo[2,3-d]pyrimidin-4-yl)amino)hexahydrocyclopenta[c]pyrrol-2(1H)-yl)-4-oxobutanenitrile] |  | 46 | 156 |  |  |  |  |  |  |
